Laboratory results published in PMC10223356, “Tetrasubstituted Pyrrole Derivative Mimetics of Protein–Protein Interaction Hot-Spot Residues: A Promising Class of Anticancer Agents Targeting Melanoma Cells” (Molecules, 2023).
≈ marks a conversion by molar mass, not a printed value.

How the values were obtained:
[1] = Solubility assay in PBS by UV light scattering (precipitation point); type: physicochemical; conditions: for solubility at 1 min: PBS (phosphate-buffered saline), aqueous buffer, kinetic from dmso stock, PBS solution pH = 7.4, 37 °C, mean ± SEM (n = 3)
Experimental: The solubility of all compounds was evaluated in a PBS solution (phosphate-buffered saline; Sigma-Aldrich, Merck KGaA, Darmstadt, Germany, pH = 7.4) by means of UV spectroscopy.
For each compound, the precipitation point was quantified measuring the increasing of the UV absorption of PBS in the range of 600–800 nm after successive additions of aliquots of a DMSO solution at specific concentration. Because of the absence of bands in the selected UV region, the increase in absorption is due to light scattering caused by the formation of particulate in the PBS. UV absorption data were graphically reported vs. μL of the added DMSO solution (x-axis), and the precipitation point was identified as the intersect point of the bilinear fitted curve. The x coordinate of the intersect point corresponded to the microlitres of DMSO added to PBS (1.4 mL) when the precipitation occurred, from which the concentration of the molecule in PBS at the precipitation point is readily calculated.
The solubility of each molecule in PBS was quantified measuring the UV scattering in the range of 600–800 nm (JASCO UV-530 spectrophotometer, equipped with ETC-505 T temperature controller). DMSO solutions of 1, 9a, 9b, 9c, 9d, 9e, 9f, ±10b, and nutlin-3a were used at a final concentration of 2.6 mM, whereas those of 9g, 9h, and 9i were used at 1.0 mM. A total of 1400 µL of degassed PBS was placed in a quartz cuvette (o.l. 0.5 cm), equilibrated 5 min at 37 °C, and then titrated by 7–10 successive additions of 0.5 µL or 0.3 µL from the DMSO solution. Each titration was performed without removing the cuvette from the UV cell and, after each addition, the solution was equilibrated 1 min a 37 °C under gently stirring before the acquisition of the UV data. For each molecule, the solubility was expressed as the mean ± SEM (n = 3).

[2] = tested on: human epithelial melanoma A375 cells; experiment: Cell survival index (MTT + cell count) bioscreen, A375; type: cell-based; conditions: for IC50: A-375, human melanoma cell line, 48 h of incubation, cell survival index, mean ± SEM (n = 30); for SI (selectivity index): SI = IC50 L6/IC50 A375
Experimental: (§1) Cell growth inhibition activity of compounds 1, 9a–i, 10a,b, and the positive control nutlin-3a was evaluated following 48 h of incubation with increasing concentrations of the compounds (from 1.5 to 25 µM) in human cancer (A375 and HCT-116) and healthy (L6) cell lines. […] The evaluation of the “cell survival index” show a typical concentration-dependent sigmoid trend, achieving IC50 values in the low micromolar range (Figure S2).
(§2) Human epithelial melanoma A375 cells, human colorectal carcinoma HCT-116 cells, and normal rat L6 myoblast were grown in DMEM (Invitrogen, Paisley, UK) supplemented with 10% fetal bovine serum (FBS, Cambrex, Verviers, Belgium), L-glutamine (2 mM, Sigma, Milan, Italy), penicillin (100 units/mL, Sigma), and streptomycin (100 μg/mL, Sigma) and cultured in a humidified 5% carbon dioxide atmosphere at 37 °C, according to ATCC recommendations. A375 and HCT-116 were used as preclinical human cancer models in vitro, while rat L6 were used as control healthy cells.
(§3) The antiproliferative activity of 1, 9a–i, and 10a,b was investigated through the estimation of a “cell survival index”, arising from the combination of cell viability evaluation with cell counting, as previously reported. The cell survival index is calculated as the arithmetic mean between the percentage values derived from the MTT assay and the automated cell count. Cells were inoculated in 96-microwell culture plates at a density of 10^4 cells/well and allowed to grow for 24 h. The medium was then replaced with fresh medium and cells were treated for an additional 48 h with a range of concentrations (from 1.5 to 25 μM) of 1, 9a–i, and 10a,b. Using the same experimental procedure, cell cultures were also incubated with DMSO as negative controls (vehicle), as well as with cisplatin (cDDP) and nutlin-3a as positive controls for cytotoxic and antiproliferative effects, respectively. Cell viability was evaluated using the MTT assay procedure. Cell number was determined by TC20 automated cell counter (Bio-Rad, Milan, Italy), providing an accurate and reproducible total count of cells and a live/dead ratio in one step by a specific dye (trypan blue) exclusion assay. The calculation of the concentration required to inhibit the net increase in the cell number and viability by 50% (IC50) is based on plots of data (n = 6 for each experiment) and repeated five times (total n = 30). IC50 values were calculated from a dose–response curve by nonlinear regression using a curve-fitting program, GraphPad Prism 5.0, and are expressed as mean values ± SEM (n = 30) of five independent experiments.

normal rat L6 myoblast = experiment: Cell survival index (MTT + cell count) bioscreen, L6; type: cell-based; conditions: healthy rat myoblast cell line, 48 h of incubation, mean ± SEM (n = 30), read-out: L6 IC50
Experimental: as §1, §2, §3

[3] = tested on: human colorectal carcinoma HCT-116 cells; experiment: Cell survival index (MTT + cell count) bioscreen, HCT-116; type: cell-based; conditions: HCT-116, 48 h, human colon cancer cell line, 48 h of incubation, mean ± SEM (n = 30)
Experimental: as §1, §2, §3

[4] = DMSO solution 2.6 mM added to 1400 µL PBS
[5] = DMSO solution 1.0 mM added to 1400 µL PBS, Abs 640 nm

SMILES	Volume of DMSO solution added to PBS at the precipitation point [1, 4]	solubility at 1 min [1]	IC50 [2]	SI (selectivity index) [2]	CC50 (normal rat L6 myoblast)	IC50 [3]	Volume of DMSO solution added to PBS at the precipitation point [1, 5]
Cc1ccc(Cn2c(C(=O)NCc3cccc(Cl)c3)cc(C(O)c3ccccc3)c2C)cc1 (racemic) [(±)10b, (±)N-(3-chlorobenzyl)-4-(hydroxy(phenyl)methyl)-5-methyl-1-(4-methylbenzyl)-1H-pyrrole-2-carboxamide]	3,6 µL	6.7 ± 0.6 µM (≈ 3.08 µg/mL)	15 ± 5 µM	3.6	54 ± 6 µM	25 ± 5 µM	–
Cc1c(C(=O)c2ccccc2)cc(C(=O)NCc2cccc(Cl)c2)n1Cc1ccc(Cl)cc1 [compound 9a, 4-Benzoyl-N-(3-chlorobenzyl)-1-(4-chlorobenzyl)-5-methyl-1H-pyrrole-2-carboxamide]	2,14 µL	3.9 ± 0.1 µM (≈ 1.86 µg/mL)	18 ± 4 µM	2.7	48 ± 5 µM	36.4 ± 8 µM	–
COc1ccc(Cn2c(C(=O)NCc3cccc(Cl)c3)cc(C(=O)c3ccccc3)c2C)cc1 [compound 9b, 4-Benzoyl-N-(3-chlorobenzyl)-1-(4-methoxybenzyl)-5-methyl-1H-pyrrole-2-carboxamide]	1,7 µL	3.1 ± 0.2 µM (≈ 1.47 µg/mL)	24 ± 14 µM	1.7	40 ± 5 µM	46 ± 18 µM	–
Cc1ccc(Cn2c(C(=O)NCc3ccc(Cl)cc3)cc(C(=O)c3ccccc3)c2C)cc1 [compound 9d, 4-Benzoyl-N-(4-chlorobenzyl)-5-methyl-1-(4-methylbenzyl)-1H-pyrrole-2-carboxamide]	1,67 µL	3.1 ± 0.2 µM (≈ 1.42 µg/mL)	15 ± 5 µM	1.7	25 ± 6 µM	35.4 ± 6 µM	–
Cc1c(C(=O)c2ccccc2)cc(C(=O)NCc2ccc(Cl)cc2)n1Cc1ccc(Cl)cc1 [compound 9e, 4-Benzoyl-N,1-bis(4-chlorobenzyl)-5-methyl-1H-pyrrole-2-carboxamide]	1,93 µL	3.5 ± 0.3 µM (≈ 1.67 µg/mL)	23 ± 6 µM	1.6	38 ± 2 µM	34.6 ± 6 µM	–
Cc1c(C(=O)c2ccccc2)cc(C(=O)NCc2cccc(C(F)(F)F)c2)n1Cc1ccccc1 [compound 9f, 4-Benzoyl-1-benzyl-5-methyl-N-(3-(trifluoromethyl)-benzyl)-1H-pyrrole-2-carboxamide]	1,41 µL	2.6 ± 0.1 µM (≈ 1.24 µg/mL)	27 ± 8 µM	1.3	35 ± 7 µM	28.4 ± 7 µM	–
CC(=O)c1cc(C(=O)NCc2cccc(Br)c2)n(Cc2ccc(C)cc2)c1-c1ccccc1 [compound 9g, 4-acetyl-N-(3-bromobenzyl)-1-(4-methylbenzyl)-5-phenyl-1H-pyrrole-2-carboxamide]	–	1.5 ± 0.2 µM (≈ 0.752 µg/mL)	18 ± 5 µM	3.9	71 ± 5 µM	34 ± 6 µM	2,1 µL
Cc1ccc(Cn2c(C(=O)NCc3cccc(Cl)c3)cc(C(=O)c3ccc(C)cc3)c2C)cc1 [compound 9h, N-(3-chlorobenzyl)-5-methyl-4-(4-methylbenzoyl)-1-(4-methylbenzyl)-1H-pyrrole-2-carboxamide]	–	< 1 µM	24 ± 6 µM	1.7	42 ± 7 µM	56.3 ± 15 µM	0.84 µL
COc1ccc(C(=O)c2cc(C(=O)NCc3cccc(Cl)c3)n(Cc3ccc(C)cc3)c2C)cc1 [compound 9i, N-(3-chlorobenzyl)-4-(4-methoxybenzoyl)-5-methyl-1-(4-methylbenzyl)-1H-pyrrole-2-carboxamide]	–	< 1 µM	16 ± 6 µM	4.2	66 ± 5 µM	> 100 µM	1,0 µL
